One molecule from US8048869B2, “Pharmaceutical composition for use in hormone replacement therapy” (Pantarhei Bioscience B.V., priority 2001, dated 2011) can be followed below.

The target of the assay is T1, human ERα (Homo sapiens, UniProt P03372).
T1 sequence (P03372 1-595): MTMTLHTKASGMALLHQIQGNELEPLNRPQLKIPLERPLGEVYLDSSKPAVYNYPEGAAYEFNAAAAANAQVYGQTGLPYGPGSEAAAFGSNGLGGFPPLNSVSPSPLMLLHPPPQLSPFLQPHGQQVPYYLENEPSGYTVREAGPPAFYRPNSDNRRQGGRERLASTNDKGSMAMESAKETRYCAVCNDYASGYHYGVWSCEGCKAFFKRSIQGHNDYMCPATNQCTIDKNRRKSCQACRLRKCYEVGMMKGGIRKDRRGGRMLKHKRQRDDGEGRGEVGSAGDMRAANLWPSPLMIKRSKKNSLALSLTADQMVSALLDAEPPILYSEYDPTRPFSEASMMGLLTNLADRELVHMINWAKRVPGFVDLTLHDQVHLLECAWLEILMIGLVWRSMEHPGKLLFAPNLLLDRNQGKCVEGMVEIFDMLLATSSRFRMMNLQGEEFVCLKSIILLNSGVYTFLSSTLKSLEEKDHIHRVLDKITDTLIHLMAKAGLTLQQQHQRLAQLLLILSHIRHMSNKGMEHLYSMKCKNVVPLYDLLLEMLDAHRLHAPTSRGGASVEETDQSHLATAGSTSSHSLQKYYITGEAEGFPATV
Nature of the assay: Competitive steroid binding assay, ERα. The following applies: from Ki values for human ERα and ERβ.

Each structure is given as a SMILES string.

Regarding `C[C@]12CC[C@@H]3c4ccc(O)cc4CC[C@H]3[C@@H]1[C@@H](O)[C@@H](O)[C@@H]2O` [E4, 1,3,5 (10)-estratrien-3,15α,16α,17β-tetrol], the “Relative ERα/ERβ preference” value was found to be 400%.
